Data published in US20050171182A1, “Methods and compositions for use in the treatment of mutant receptor tyrosine kinase driven cellular proliferative diseases” (priority 2003, published 2005).
Like-named read-outs stand apart in the source and are kept apart here. One block for each compound: values may come before it.

Legend:
K562 cells = experiment: MTT viability assay, K562 cells; assay type: cell-based
Procedure: (§1) Given that mutant Flt3 activates cyclin D/CDK4 signaling, the effect of the CDK4 inhibitor arcyriaflavin on the viability of MV4-11 cells was tested. As a control in this experiment, an inhibitor for cyclin A/CDK2 and cyclin E/CDK2 (purvalanol) as well as an inhibitor for cyclin B/CDK1 (alsterpaullone) was included. […] The inhibitors were also tested against EOL-1 cells, which express the mutant fusion kinase FiplL1-PDGFROα and against K562 and BV173 cells (CML cell lines) and THP-1 and U937 cells (AML cell lines). The dilution range of the inhibitors was from 20 μM to 10 nM.
(§2) Viability of the cell lines was determined by an MTT assay, which is based on the reduction of the tetrazolium salt 3, [4,5-dimethylthiazol-2-yl]-2,5-diphenyltetrazolium bromide (MTT). Mitochondrial enzymes associated with metabolic activity reduce MTT to a formazan dye, which can be measured spectrometrically. Cells undergoing apoptosis show reduced metabolic activity resulting in reduced formation of the formazan dye.

BV173 cells = experiment: MTT viability assay, BV173 cells; assay type: cell-based
Procedure: as §1, §2

EOL-1 cells = experiment: cells; details: for IC50: read-out: Viability (IC50) EOL-1; for effect on viability of EOL-1 cells, presence of cytokines: 1 μM (U0126 10 μM), FIGS. 2, 4, 6, GM-CSF and IL-3 10 ng/mL each
Procedure: as §1, §2
(§3) The bone marrow environment is known to contain a multitude of cytokines. […] The cell lines were incubated with the appropriate inhibitor in the presence and absence of the cytokines GM-CSF and IL-3 (10 ng/mL each).
(§4) To test the role of MEK in the survival of MV4-11 and EOL-1 cells, a viability assay (48 hour incubation) was performed using U0126 (10 μM), an MEK specific inhibitor (see FIG. 5).

MV4-11 cells = experiment: cells; details: for IC50: read-out: Viability (IC50) MV4-11
Procedure: as §1, §2, §3, §4

THP-1 cells = experiment: cells; details: for IC50: read-out: Viability (IC50) THP-1; for effect on viability of THP-1 cells: 48 hours, arcyriaflavin 1 μM, U0126 10 μM, FIGS. 4-6, absence and presence of cytokines
Procedure: as §1, §2, §3, §4

U937 cells = experiment: MTT viability assay, U937 cells; assay type: cell-based
Procedure: as §1, §2

[1] = exposed to inhibitor for 72 hours
[2] = exposed to inhibitor for 72 hours, MTT
[3] = 48 hours, arcyriaflavin 1 μM, U0126 10 μM, FIGS. 5, 6, absence and presence of cytokines

IC50 (K562 cells; [1]): > 10000 nM
IC50 (MV4-11 cells; [2]): 3000 nM
IC50 (THP-1 cells; [2]): > 10000 nM
IC50 (U937 cells; [1]): > 10000 nM
Compound: purvalanol
IC50 (BV173 cells; [1]): > 10000 nM
IC50 (EOL-1 cells; [2]): > 10000 nM

Compound: N#CC(=C(/N)Sc1ccccc1N)/C(C#N)=C(\N)Sc1ccccc1N [U0126, 1,4-diamino-2,3-dicyano-1,4-bis[2-aminophenylthio]butadiene]
effect on survival/viability of EOL-1 cells, overall (EOL-1 cells; [3]): slightly alters
viability at 10 µM (EOL-1 cells; Homo sapiens, EOL1, 48 h, read-out: Viability (%) EOL-1 cell line, Cytokines Absent): 80%
Viability (%) EOL-1 cell line, GM-CSF/IL-3 (10 ng/mL each) (EOL-1 cells; human, 48 h, 10 μM): 103%
effect on survival/viability of MV4-11 cells, overall (MV4-11 cells; [3]): slightly alters
viability at 10 µM (MV4-11 cells; Homo sapiens, MV4-11, 48 h, read-out: Viability (%) MV4-11 cell line, Cytokines Absent): 103%
Viability (%) MV4-11 cell line, GM-CSF/IL-3 (10 ng/mL each) (MV4-11 cells; human, 48 h, 10 μM): 90%
effect on viability of THP-1 cells (THP-1 cells): slightly alters
viability at 10 µM (THP-1 cells; Homo sapiens, THP-1, 48 h, read-out: Viability (%) THP-1 cell line, Cytokines Absent): 79%
Viability (%) THP-1 cell line, GM-CSF/IL-3 (10 ng/mL each) (THP-1 cells; human, 48 h, 10 μM): 97%

IC50 (K562 cells; Homo sapiens, K562, exposed to inhibitor for 72 hours): > 10000 nM
IC50 (MV4-11 cells; Homo sapiens, MV4-11, 72 h): 1000 nM
IC50 (THP-1 cells; Homo sapiens, THP-1, 72 h): 1000 nM
IC50 (U937 cells; Homo sapiens, U-937, exposed to inhibitor for 72 hours): 600 nM
Compound: O=C1Cc2c([nH]c3ccc([N+](=O)[O-])cc23)-c2ccccc2N1 [alsterpaullone]
IC50 (BV173 cells; Homo sapiens, BV-173, exposed to inhibitor for 72 hours): 1000 nM
IC50 (EOL-1 cells; Homo sapiens, EOL1, 72 h): 1000 nM

Compound: CS(=O)(=O)O.Cc1ccc(NC(=O)c2ccc(CN3CCN(C)CC3)cc2)cc1Nc1nccc(-c2cccnc2)n1 [imatinib]
effect on viability of EOL-1 cells, presence of cytokines (EOL-1 cells; 48 hours): much less affected
effect on viability of EOL-1 cells, absence of cytokines (EOL-1 cells; 48 hours, 1 μM, FIGS. 2, 4, cytokines absent): strongly reduce

Compound: O=C1NC(=O)c2c1c1c3ccccc3[nH]c1c1[nH]c3ccccc3c21 [arcyriaflavin, arcyriaflavin A]
IC50 (K562 cells; [1]): > 10000 nM
IC50 (BV173 cells; [1]): > 10000 nM
Viability (%) EOL-1 cell line, GM-CSF/IL-3 (10 ng/mL each) (EOL-1 cells): 60%
effect on viability of EOL-1 cells, presence of cytokines (EOL-1 cells; 48 hours): much reduced
IC50 (EOL-1 cells; [2]): 200 nM
Viability (%) MV4-11 cell line, GM-CSF/IL-3 (10 ng/mL each) (MV4-11 cells): 52%
effect on viability of MV4-11 cells, presence of cytokines (MV4-11 cells; 48 hours, 1 μM (U0126 10 μM), FIGS. 3, 4, 6, GM-CSF and IL-3 10 ng/mL each): much reduced
IC50 (MV4-11 cells; [2]): 500 nM
Viability (%) THP-1 cell line, GM-CSF/IL-3 (10 ng/mL each) (THP-1 cells): 96%
effect on viability of THP-1 cells (THP-1 cells): not affected
IC50 (THP-1 cells; [2]): > 10000 nM
IC50 (U937 cells; [1]): > 10000 nM
